Results: patent publication US8268849B2, “Multifunctional Antioxidants and methods of use thereof” (priority 2007, dated 2012)

How the values were obtained:
[1] = Chelation study by ESI-MS, Fe^3+ solution; assay type: binding; conditions: 10:1 metal:compound, 45 minutes of mixing
Experimental: (§1) The relative amount of ions bound by JHX-1-JHX-8 was determined by electrospray ionization mass spectrometry (ESI-MS) according to the method of Baron and Hering (Baron and Hering (1998) Spectrometry J. Environ. Qual., 27:844-850). In this method solutions containing Fe^2+, Fe^3+, Cu^1+, Cu^2+, Zn^2+, Ca^2+, Mg^2+ were mixed with compound in ratios of 10:1, 1:1, and 1:10. After 45 minutes of mixing, each solution was directly infused into the MS with constant ionization energy and the relative decreases of the parent peaks in these solutions were determined. […] FIG. 3 illustrates ion binding with increased Fe^+2 concentrations results in decreased compound parent peak heights by ESI-MS when compounds contain appropriate functional groups for metal ion chelation.

[2] = Chelation study by ESI-MS, Zn^2+ solution; assay type: binding; conditions: 10:1 metal:compound, 45 minutes of mixing
Experimental: as §1

[3] = Chelation study by ESI-MS, Fe^2+ solution; assay type: binding; conditions: 10:1 metal:compound, 45 minutes of mixing
Experimental: as §1

[4] = Chelation study by ESI-MS, Mg^2+ solution; assay type: binding; conditions: 10:1 metal:compound, 45 minutes of mixing
Experimental: as §1

[5] = Chelation study by ESI-MS, Ca^2+ solution; assay type: binding; conditions: 10:1 metal:compound, 45 minutes of mixing
Experimental: as §1

[6] = Drug levels in target tissues after oral administration; assay type: in vivo, Sprague Dawley rats; conditions: normal young rats; for drug detected in the brain: chow containing 0.05% drug for 6 days; for Lens drug level / retinal drug level: chow containing 0.05% drug for 6 days (80±10 mg/kg/day), HPLC; for retinal drug level: posterior segment
Experimental: (§2) To determine whether JHX-4 and JHX-8 can reach the target tissues of lens, retina and brain after oral administration, two groups of 4 young (100 g) Sprague Dawley rats were administered rat chow containing 0.05% of either drug for 6 days. […] Lens and posterior segments were homogenized in glass homogenizers in ice-cold PBS, pH 7.4, after addition of an aliquot of JHX-1 as an internal standard. The homogenates were deproteinized with 48 mM NaF and centrifuged. The supernatant was extracted with acetone. The acetone extract was evaporated under vacuum and the residue was dissolved in acetonitrile. Whole brains were similarly extracted; however, brain homogenates were deproteinized with equal amounts of 0.3 N Na2SO4 and 0.3 N Ba(OH)2. Drug levels were measured by reverse-phase HPLC with a Phenomenex LUNA 5 μm C18 column and an isocratic elution of 1:1 MeOH:Water. Detection was conducted at 245 nm and compound levels were quantified using standard curves. Lens and retinal drug levels were 200±11 and 1373±38 ng/mg protein for JHX-4 and 90±5 and 1060±12 ng/mg protein for JHX-8 respectively. Only trace amounts of either compound were detected in the brain.

[7] = Chow consumption, body weight and salivary gland protection after whole head irradiation; assay type: in vivo, Long Evans rats; conditions: for body weight after irradiation: 15 Gy whole head irradiation; for protection of the salivary gland: after whole head irradiation
Description: Cataracts were induced by whole head gamma irradiation in 24 male Long Evans (150-200 g) rats. […] Because of the amount of drug required for this long-term study, the percentage of JHX-4 and JHX-8 utilized was ½ of the dose used in the diabetic study. […] Lens changes were monitored every 7 days by portable slit lamp and recorded on a scale from 0-6 with 0: Clear, 1: Posterior subcapsular haze, 2: Spokes, suture enhancement and powdery posterior subcapsular deposits, 3: Prominent posterior subcapsular punctate opacities with spokes and suture enhancement, 4: Posterior subcapsular opacity blocks appearance of retinal vessels, 5: Start cortical involvement, 6: Total lens opacity, visible with naked eye. […] Subsequently, all rats received standard rat chow with/without JHX-4 or -8.

[8] = Chelation study by ESI-MS, Cu^1+ solution; assay type: binding; conditions: 10:1 metal:compound, 45 minutes of mixing
Experimental: as §1

[9] = system: diabetic cataract formation; assay: Cataract formation in diabetic rats; assay type: in vivo; conditions: for blood sugar / toxic effects: diabetic rats; for delay of vacuole formation / delay of cortical cataracts / lens sorbitol levels: streptozotocin diabetic rats; for delay of vacuole formation / delay of cortical cataracts: 0.025% in chow; for delay of vacuole formation: versus untreated diabetic group (14 days); for delay of cortical cataracts: versus untreated diabetic group (29 days); for lens sorbitol levels: end of study (47 days)
Experimental: (§3) Diabetes was induced in 100 g Sprague Dawley rats with streptozotocin injection (75 mg/kg) and all rats with blood sugar levels >300 mg/dL were divided into 4 groups of 8 rats each. One group received only standard rat chow (untreated diabetic) while each of the other groups received chow containing either 0.0125% ARI Al1576, 0.025% JHX-4 or 0.025% JHX-8. Lens changes were monitored by at 3-5 day intervals by slit lamp following tropicamide mydriasis. As summarized in FIGS. 8A-8C, vacuole formation began by 14 days in the untreated diabetic group with cortical opacities observed by 29 days and mature cataracts by 44 days. […] In the two antioxidant treated groups, vacuole formation was delayed by 19 and 11 days by JHX-4 and JHX-8, respectively, and cortical cataracts by 9 and 3 days, respectively. At the end of the study (47 days) all rats were equally diabetic with HbA1C levels >11.9%. All eyes were enucleated and lens sorbitol levels were measured as previously described (Kador et al. (2007) J. Ocul. Pharmacol. Ther., 23:116-23). […] Tissue levels of JHX-4 and -8 in the lens, neural retina and brain were determined after 47 days of feeding as described above (FIG. 10). […] Overall drug levels in both the lens and retina were ca. 3-fold higher in the diabetic rats with brain levels also now present. This increase may be due to either an accumulation of drug, or increased permeability of tissues and the BBB to drug in streptozotocin diabetic rats (Mooradian et al. (2005) Diabetes, 54:2977-82).

[10] = Tissue drug levels in diabetic rats after 47 days of feeding; assay type: in vivo, Sprague Dawley rats
Experimental: as §2, §3

| SMILES | % Parent Peak Remaining at 10:1 Solution of Metal:Compound [1] [%] | % Parent Peak Remaining at 10:1 Solution of Metal:Compound [2] [%] | % Parent Peak Remaining at 10:1 Solution of Metal:Compound [3] [%] | % Parent Peak Remaining at 10:1 Solution of Metal:Compound [4] [%] | % Parent Peak Remaining at 10:1 Solution of Metal:Compound [5] [%] | drug detected in the brain [6] | Lens drug level [6] [ng/mg protein] | retinal drug level [6] [ng/mg protein] | body weight after irradiation [7] | protection of the salivary gland [7] | % Parent Peak Remaining at 10:1 Solution of Metal:Compound [8] [%] | blood sugar [9] | toxic effects [9] | delay of vacuole formation [9] [days] | delay of cortical cataracts [9] [days] | lens sorbitol levels [9] | brain levels of drug [10] | drug levels in both the lens and retina, diabetic rats versus normal rats [10] |
| --- | --- | --- | --- | --- | --- | --- | --- | --- | --- | --- | --- | --- | --- | --- | --- | --- | --- | --- |
| CN(C)S(=O)(=O)N1C(=O)CN(c2ncc(O)cn2)CC1=O [JHX-4, 1-N,N′-dimethylsulfamoyl-4-(5-hydroxy-2-pyrimidyl)piperazine-2,6-dione] | 8.2 | 12.7 | 6.9 | 100.0 | 100.0 | trace amounts | 200±11 | 1373±38 | reducing post-irradiation weight loss | provided systemic protection | 4.2 | did not alter | No apparent toxic effects | 19 | 9 | did not alter | now present | ca. 3 fold |
| COc1nc(N2CC(=O)N(S(=O)(=O)N(C)C)C(=O)C2)nc(OC)c1O [JHX-8, 1-N,N′-dimethylsulfamoyl-4-(4,6-dimethoxy-5-hydroxy-2-pyrimidyl)piperazine-2,6-dione] | 8.2 | 14.6 | 7.5 | 100.0 | 100.0 | trace amounts | 90±5 | 1060±12 | reducing post-irradiation weight loss | provided systemic protection | 4.0 | did not alter | No apparent toxic effects | 11 | 3 | did not alter | now present | ca. 3 fold |
